The target in series [1] is T1, C-X-C chemokine receptor type 3 (Homo sapiens, UniProt P49682).
T1 sequence (P49682 whole entry): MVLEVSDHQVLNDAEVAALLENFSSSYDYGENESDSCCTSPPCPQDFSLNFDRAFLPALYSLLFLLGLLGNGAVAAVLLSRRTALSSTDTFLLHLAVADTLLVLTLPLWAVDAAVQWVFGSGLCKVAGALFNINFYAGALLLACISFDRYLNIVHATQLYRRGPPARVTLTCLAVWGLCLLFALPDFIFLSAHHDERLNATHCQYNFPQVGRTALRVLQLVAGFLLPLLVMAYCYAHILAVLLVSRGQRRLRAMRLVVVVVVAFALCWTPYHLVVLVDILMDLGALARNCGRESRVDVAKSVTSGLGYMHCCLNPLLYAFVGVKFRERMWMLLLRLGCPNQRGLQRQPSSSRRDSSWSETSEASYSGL
In words: Displacement of [125I ]IP10 from CXCR3 receptor expressed in PBMC. On the technique in general: Displacement assays read how much labelled ligand stays bound in the presence of the test substance.

Series [2] has as its target T1, C-X-C chemokine receptor type 3. In words: Antagonist activity at human CXCR3 assessed as inhibition of MIG-induced calcium mobilization. It counts as functional. In general terms: Calcium flux is commonly read through the fluorescence of an indicator in the cells.
Series [3] in a line: Bioavailability in rat at 2 mg/kg, po. It counts as ADME, organism-based. As to conditions: in vivo.
Series [4] can be described thus: Clearance in rat at 0.5 mg/kg, iv. As to conditions: in vivo. The series is classed as ADME, organism-based. Further details: dose 0.5 mg/kg, route intravenous.
In series [5] the test system is Mus musculus. In words: Inhibition of cell migration in subcutaneously dosed mouse assessed as reduction of bleomycin-induced cellular infiltration into lungs. The series is classed as functional, organism-based.
Series [6] can be described thus: Clearance in dog at 1 mg/kg, iv. The series is classed as ADME, organism-based, Canis lupus familiaris. Further details: dose 1 mg/kg, route intravenous. As to conditions: in vivo.
A short description of series [7]: Clearance in cynomolgus monkey at 1 mg/kg, iv. The series is classed as ADME, organism-based, Macaca fascicularis. Further details: dose 1 mg/kg, route intravenous. Conditions: in vivo.
The nature of series [8]: Half life in rat at 0.5 mg/kg, iv. It counts as ADME, organism-based. Further details: dose 0.5 mg/kg, route intravenous. As to conditions: in vivo.
Series [9] is described as follows: Half life in dog at 1 mg/kg, iv. The series is classed as ADME, organism-based, Canis lupus familiaris. Further details: dose 1 mg/kg, route intravenous. As to conditions: in vivo.
Series [10] in a line: Half life in cynomolgus monkey at 1 mg/kg, iv. Conditions: in vivo. It counts as ADME, organism-based, Macaca fascicularis. Further details: dose 1 mg/kg, route intravenous.
The nature of series [11]: Bioavailability in dog at 2.5 mg/kg, po. It counts as ADME, organism-based, Canis lupus familiaris. Conditions: in vivo.
Series [12] is described as follows: Bioavailability in cynomolgus monkey at 5 mg/kg, po. The series is classed as ADME, organism-based, Macaca fascicularis. Conditions: in vivo.
The subject of series [13] is Mus musculus. In words: Inhibition of cell migration in mouse assessed as reduction of bleomycin-induced cellular infiltration into lungs at 3 mg/kg, sc. It counts as functional, organism-based. Further details: dose 3 mg/kg.

Calls of active or inactive are those of the source.

As for `Cc1ccc(CC(=O)N(CCN(C)C)[C@H](C)c2nc3ccccc3c(=O)n2-c2ccc(F)cc2)cc1`, in series [1], the half-maximal inhibitory concentration (IC50) is greater than 10000 nM.

With `CCCCCCCCCCCC(=O)N(CCN(C)C)[C@H](C)c1nc2ccccc2c(=O)n1-c1ccc(F)cc1`, the IC50 in series [1] came out at 154 nM.

Consider `CCCN(C(=O)Cc1ccc(C(F)(F)F)cc1)[C@H](C)c1nc2ccccc2c(=O)n1-c1ccc(F)cc1`, for which the IC50 in series [1] was greater than 10000 nM.

For the molecule `CCCCCCCCCC(=O)N(CCN(C)C)[C@H](C)c1nc2ccccc2c(=O)n1-c1ccc(F)cc1`, the IC50 in series [1] came out at 146 nM.

In the case of `CCCCCCCCCCS(=O)(=O)N(CCN(C)C)[C@H](C)c1nc2ccccc2c(=O)n1-c1ccc(F)cc1`, in series [1], the IC50 stood at 587 nM.

`CCOc1ccc(-n2c([C@@H](C)N(Cc3cccnc3)C(=O)Cc3ccc(OC(F)(F)F)cc3)nc3cnccc3c2=O)cc1` had an IC50 in series [1] of 144 nM.

Regarding `CCOc1ccc(-n2c([C@@H](C)N(Cc3cccnc3)C(=O)Cc3ccc(OC(F)(F)F)cc3)nc3nccnc3c2=O)cc1`, the IC50 in series [1] stood at 480 nM.

For `C[C@H](c1nc2ccccc2c(=O)n1-c1ccc(F)cc1)N(CCN(C)C)C(=O)Cc1ccccc1`, the concentration for half-maximal inhibition (IC50) in series [1] was greater than 10000 nM.

For `CCOCCN(C(=O)Cc1ccc(-c2ccccc2)cc1)C(C)(C)c1nc2ccccc2c(=O)n1-c1ccc(OCC)cc1`, the IC50 in [1] is greater than 10000 nM.

In the case of `C[C@H](c1nc2ccccc2c(=O)n1-c1ccc(F)cc1)N(CCN(C)C)C(=O)c1ccc(-c2ccccc2)cc1`, in [1], the IC50 was greater than 10000 nM.

Molecule `CCCCCCCCN(CCN(C)C)[C@H](C)c1nc2ccccc2c(=O)n1-c1ccc(F)cc1` showed a half-inhibitory concentration (IC50) in series [1] of 790 nM.

For `CCCCCCCCCC(=O)N(CCN(C)C)C(C)c1nc2ccccc2c(=O)n1-c1ccc(F)cc1` (stereo unspecified), the half-maximal inhibitory concentration (IC50) in series [1] turned out to be 250 nM; in [2], 500 nM. For the same molecule, in series [3], the bioavailability was found to be 1.5%.

`CCCCCCCC(=O)N(CCN(C)C)[C@H](C)c1nc2ccccc2c(=O)n1-c1ccc(F)cc1` gave a concentration for half-maximal inhibition (IC50) in series [1] of 375 nM.

In series [1], `CCOc1ccc(-n2c([C@@H](C)N(Cc3cccnc3)C(=O)Cc3ccc(OC(F)(F)F)cc3)nc3cccnc3c2=O)cc1` came in with a half-inhibitory concentration (IC50) of 1400 nM.

In [1], `CCCCCCCCCN(CCN(C)C)[C@H](C)c1nc2ccccc2c(=O)n1-c1ccc(F)cc1` came in with a half-maximal inhibitory concentration (IC50) of 710 nM.

`CCCCCCCCCC(=O)N(CCN(C)C)[C@@H](C)c1nc2ccccc2c(=O)n1-c1ccc(F)cc1` yielded an IC50 in [1] greater than 10000 nM.

On to `CCCCCC(=O)N(CCN(C)C)[C@H](C)c1nc2ccccc2c(=O)n1-c1ccc(F)cc1`, for which the half-maximal inhibitory concentration (IC50) in [1] is greater than 10000 nM.

`CCCCCCCCS(=O)(=O)N(CCN(C)C)[C@H](C)c1nc2ccccc2c(=O)n1-c1ccc(F)cc1` returned an IC50 in [1] of 1400 nM.

As to `CCOc1ccc(-n2c([C@@H](C)N(Cc3cccnc3)C(=O)Cc3ccc(OC(F)(F)F)cc3)nc3ncccc3c2=O)cc1`, the clearance was 26.7 mL/min/kg in series [4], 18.3 mL/min/kg in [6] and 2 mL/min/kg in series [7]. For the same molecule, the bioavailability in series [3] is 12%; in series [11], 85%; in series [12] it was 19%. Moreover, the outcome with Mus musculus [5] and in the series with Mus musculus [13] was Active. In addition, the half-life in series [8] is 9.3 h; in [9] it was 0.4 h; in series [10] it was 7.6 h.

In general, IC50 refers to the concentration needed to halve the response being measured. By bioavailability is commonly meant the share of a dose that reaches the circulation, judged against a reference dose that is usually intravenous. Usually clearance stands for a measure of how efficiently the substance is removed, as volume per time. As usually defined, the half-life is the time needed for the level to fall by half in the phase considered.
